Source: ChEMBL document CHEMBL1201861, “Genomics of Drug Sensitity in Cancer screening data, Wellcome Trust Sanger Institute”
pIC50: −log10 of the molar value.

Legend:
Assay in all cases: cells
Conditions in all cases: Homo sapiens
[1] = tested on: KP-N-YN; assay type: functional, cell-based;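 also: growth inhibition of KP-N-YN cells, read out with a cell viability assay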
Description: SANGER: Inhibition of human KP-N-YN cell growth in a cell viability assay.

[2] = tested on: GMS-10; assay type: functional, cell-based;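 also: growth inhibition of GMS-10 cells, read out as cell viability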
Description: SANGER: Inhibition of human GMS-10 cell growth in a cell viability assay.

[3] = tested on: HSC-3; assay type: functional, cell-based
Description: SANGER: Inhibition of human HSC-3 cell growth in a cell viability assay.

[4] = tested on: TYK-nu; assay type: functional, cell-based;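 also: growth inhibition of human TYK-nu cells, read out by a cell viability assay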
Description: SANGER: Inhibition of human TYK-nu cell growth in a cell viability assay.

[5] = tested on: NCI-H810; assay type: functional, cell-based;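 also: IC50 reflects inhibition of cancer cell line growth, read out with a cell viability assay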
Description: SANGER: Inhibition of human NCI-H810 cell growth in a cell viability assay.

[6] = tested on: Ca9-22; assay type: functional, cell-based;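 also: growth inhibition of Ca9-22 cells, read out with a cell viability assay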
Description: SANGER: Inhibition of human Ca9-22 cell growth in a cell viability assay.

[7] = tested on: RPMI-7951; assay type: functional, cell-based
Description: SANGER: Inhibition of human RPMI-7951 cell growth in a cell viability assay.

[8] = tested on: UMUC3; assay type: functional, cell-based;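 also: growth inhibition of human UM-UC-3 cells, read out with a cell viability assay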
Description: SANGER: Inhibition of human UM-UC-3 cell growth in a cell viability assay.

[9] = tested on: EGI-1; assay type: functional, cell-based;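 also: cell viability readout used to gauge growth inhibition of EGI-1 cells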
Description: SANGER: Inhibition of human EGI-1 cell growth in a cell viability assay.

[10] = tested on: OAW-42; assay type: functional, cell-based;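 also: growth inhibition of OAW-42 cells, read out with a cell viability assay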
Description: SANGER: Inhibition of human OAW-42 cell growth in a cell viability assay.

[11] = tested on: NCI-H1993; assay type: functional, cell-based;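 also: growth inhibition of the cancer cell line, assessed with a cell viability assay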
Description: SANGER: Inhibition of human NCI-H1993 cell growth in a cell viability assay.

[12] = tested on: SK-HEP1; assay type: functional, cell-based, SK-HEP-1;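 also: cell viability readout used to quantify reduction in proliferation of human SK-HEP-1 cells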
Description: SANGER: Inhibition of human SK-HEP-1 cell growth in a cell viability assay.

[13] = tested on: NUGC-3; assay type: functional, cell-based;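 also: growth inhibition of human NUGC-3 cells, read out with a cell viability assay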
Description: SANGER: Inhibition of human NUGC-3 cell growth in a cell viability assay.

[14] = tested on: OE19; assay type: functional, cell-based;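 also: growth inhibition of OE19 cells, measured through a cell viability read-out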
Description: SANGER: Inhibition of human OE19 cell growth in a cell viability assay.

[15] = tested on: A2058; assay type: functional, cell-based;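 also: reduction of A2058 cell growth, read out with a viability assay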
Description: SANGER: Inhibition of human A2058 cell growth in a cell viability assay.

[16] = tested on: BT-20; assay type: functional, cell-based;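 also: cell viability assay measuring suppression of growth in human BT-20 cells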
Description: SANGER: Inhibition of human BT-20 cell growth in a cell viability assay.

[17] = tested on: CAKI-1; assay type: functional, cell-based;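 also: growth inhibition of CAKI-1 cells, measured by a cell viability assay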
Description: SANGER: Inhibition of human CAKI-1 cell growth in a cell viability assay.

[18] = tested on: Capan-2; assay type: functional, cell-based;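 also: Capan-2 cell growth inhibition, read out with a viability assay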
Description: SANGER: Inhibition of human Capan-2 cell growth in a cell viability assay.

[19] = tested on: C32; assay type: functional, cell-based;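 also: cell viability assay, with IC50 reflecting inhibition of C32 cell growth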
Description: SANGER: Inhibition of human C32 cell growth in a cell viability assay.

[20] = tested on: G-402; assay type: functional, cell-based
Description: SANGER: Inhibition of human G-402 cell growth in a cell viability assay.

[21] = tested on: OVCAR-3; assay type: functional, cell-based;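 also: growth inhibition of human OVCAR-3 cells, determined by a cell viability assay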
Description: SANGER: Inhibition of human OVCAR-3 cell growth in a cell viability assay.

[22] = tested on: LU-99A; assay type: functional, cell-based;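 also: growth inhibition of LU-99A cells, read out with a cell viability assay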
Description: SANGER: Inhibition of human LU-99A cell growth in a cell viability assay.

[23] = tested on: U-251; assay type: functional, cell-based;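 also: growth inhibition of human U-251 cells, read out through a cell viability assay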
Description: SANGER: Inhibition of human U251 cell growth in a cell viability assay.

[24] = tested on: AGS; assay type: functional, cell-based;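 also: growth inhibition of AGS cells, determined with a cell viability assay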
Description: SANGER: Inhibition of human AGS cell growth in a cell viability assay.

[25] = tested on: BFTC-909; assay type: functional, cell-based
Description: SANGER: Inhibition of human BFTC-909 cell growth in a cell viability assay.

[26] = tested on: MDA-MB-453; assay type: functional, cell-based
Description: SANGER: Inhibition of human MDA-MB-453 cell growth in a cell viability assay.

[27] = tested on: J82; assay type: functional, cell-based;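 also: growth inhibition of J82 cells, read out with a cell viability assay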
Description: SANGER: Inhibition of human J82 cell growth in a cell viability assay.

[28] = tested on: YAPC; assay type: functional, cell-based;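 also: growth inhibition of YAPC cells, measured with a cell viability assay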
Description: SANGER: Inhibition of human YAPC cell growth in a cell viability assay.

[29] = tested on: KYSE-410; assay type: functional, cell-based;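 also: growth inhibition of KYSE-410 cells, measured through a cell viability readout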
Description: SANGER: Inhibition of human KYSE-410 cell growth in a cell viability assay.

[30] = tested on: LCLC-97TM1; assay type: functional, cell-based;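 also: cell viability assay measuring growth inhibition of human LCLC-97TM1 cells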
Description: SANGER: Inhibition of human LCLC-97TM1 cell growth in a cell viability assay.

[31] = tested on: COLO-680N; assay type: functional, cell-based;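 also: cell viability assay used to measure inhibition of COLO-680N cell growth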
Description: SANGER: Inhibition of human COLO-680N cell growth in a cell viability assay.

[32] = tested on: HuP-T4; assay type: functional, cell-based;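 also: cell viability assay measuring how much HuP-T4 cell growth is inhibited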
Description: SANGER: Inhibition of human HuP-T4 cell growth in a cell viability assay.

[33] = tested on: NCI-H1693; assay type: functional, cell-based;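 also: growth inhibition of the human cell line, read out with a cell viability assay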
Description: SANGER: Inhibition of human NCI-H1693 cell growth in a cell viability assay.

[34] = tested on: NB12; assay type: functional, cell-based;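 also: growth inhibition of human NB12 cells, read out by a cell viability assay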
Description: SANGER: Inhibition of human NB12 cell growth in a cell viability assay.

[35] = tested on: MDA-MB-157; assay type: functional, cell-based
Description: SANGER: Inhibition of human MDA-MB-157 cell growth in a cell viability assay.

[36] = tested on: RERF-LC-MS; assay type: functional, cell-based;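 also: growth inhibition of human RERF-LC-MS cells, read out by a cell viability assay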
Description: SANGER: Inhibition of human RERF-LC-MS cell growth in a cell viability assay.

[37] = tested on: KYSE-140; assay type: functional, cell-based;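 also: cell viability assay measuring growth inhibition in human KYSE-140 cells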
Description: SANGER: Inhibition of human KYSE-140 cell growth in a cell viability assay.

[38] = tested on: MEL-JUSO; assay type: functional, cell-based;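 also: growth inhibition of human MEL-JUSO cells, read out with a cell viability assay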
Description: SANGER: Inhibition of human MEL-JUSO cell growth in a cell viability assay.

[39] = tested on: M14; assay type: functional, cell-based;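 also: growth inhibition of M14 cells, read out with a cell viability assay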
Description: SANGER: Inhibition of human M14 cell growth in a cell viability assay.

[40] = tested on: NCI-H2030; assay type: functional, cell-based;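 also: growth inhibition of human NCI-H2030 cells, read out by a cell viability assay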
Description: SANGER: Inhibition of human NCI-H2030 cell growth in a cell viability assay.

[41] = tested on: D-542MG; assay type: functional, cell-based
Description: SANGER: Inhibition of human D-542MG cell growth in a cell viability assay.

[42] = tested on: H4; assay type: functional, cell-based
Description: SANGER: Inhibition of human H4 cell growth in a cell viability assay.

Cn1cc(/C=C2\C(=O)Nc3cccnc32)c2ccccc21
pIC50 [1]: < 5.70
pIC50 [2]: < 5.70
pIC50 [3]: < 5.70
pIC50 [4]: < 5.70
pIC50 [5]: < 5.70
pIC50 [6]: < 5.70
pIC50 [7]: < 5.70
pIC50 [8]: < 5.70
pIC50 [9]: < 5.70
pIC50 [10]: < 5.70
pIC50 [11]: < 5.70
pIC50 [12]: < 5.70
pIC50 [13]: < 5.70
pIC50 [14]: < 5.70
pIC50 [15]: < 5.70
pIC50 [16]: < 5.70
pIC50 [17]: < 5.70
pIC50 [18]: < 5.70
pIC50 [19]: < 5.70
pIC50 [20]: < 5.70
pIC50 [21]: < 5.70
pIC50 [22]: < 5.70
pIC50 [23]: < 5.70
pIC50 [24]: < 5.70
pIC50 [25]: < 5.70
pIC50 [26]: < 5.70
pIC50 [27]: < 5.70
pIC50 [28]: < 5.70
pIC50 [29]: < 5.70
pIC50 [30]: < 5.70
pIC50 [31]: < 5.70
pIC50 [32]: < 5.70
pIC50 [33]: < 5.70
pIC50 [34]: < 5.70
pIC50 [35]: < 5.70
pIC50 [36]: < 5.70
pIC50 [37]: < 5.70
pIC50 [38]: < 5.70
pIC50 [39]: < 5.70
pIC50 [40]: < 5.70
pIC50 [41]: < 5.70
pIC50 [42]: < 5.70

O=c1cc(N2CCOCC2)oc2c(-c3cccc4c3sc3ccccc34)cccc12
pIC50 [1]: < 5.70
pIC50 [2]: < 5.70
pIC50 [3]: < 5.70
pIC50 [4]: < 5.70
pIC50 [5]: < 5.70
pIC50 [6]: < 5.70
pIC50 [7]: < 5.70
pIC50 [8]: < 5.70
pIC50 [9]: < 5.70
pIC50 [10]: < 5.70
pIC50 [11]: < 5.70
pIC50 [12]: < 5.70
pIC50 [13]: < 5.70
pIC50 [14]: < 5.70
pIC50 [15]: < 5.70
pIC50 [16]: < 5.70
pIC50 [17]: < 5.70
pIC50 [18]: < 5.70
pIC50 [19]: < 5.70
pIC50 [20]: < 5.70
pIC50 [21]: < 5.70
pIC50 [22]: < 5.70
pIC50 [23]: < 5.70
pIC50 [24]: < 5.70
pIC50 [25]: < 5.70
pIC50 [26]: < 5.70
pIC50 [27]: < 5.70
pIC50 [28]: < 5.70
pIC50 [29]: < 5.70
pIC50 [30]: < 5.70
pIC50 [31]: < 5.70
pIC50 [32]: < 5.70
pIC50 [33]: < 5.70
pIC50 [34]: < 5.70
pIC50 [35]: < 5.70
pIC50 [36]: < 5.70
pIC50 [37]: < 5.70
pIC50 [38]: < 5.70
pIC50 [39]: < 5.70
pIC50 [40]: < 5.70
pIC50 [41]: < 5.70
pIC50 [42]: < 5.70

NC(=O)c1ncn([C@@H]2O[C@H](COP(=O)(O)O)[C@@H](O)[C@H]2O)c1N
pIC50 [1]: < 2.70
pIC50 [2]: 3.18
pIC50 [3]: 3.59
pIC50 [4]: < 2.70
pIC50 [5]: < 2.70
pIC50 [6]: 2.90
pIC50 [7]: 2.80
pIC50 [8]: 2.76
pIC50 [9]: < 2.70
pIC50 [10]: < 2.70
pIC50 [12]: 3.04
pIC50 [13]: < 2.70
pIC50 [14]: < 2.70
pIC50 [15]: < 2.70
pIC50 [16]: 2.86
pIC50 [17]: < 2.70
pIC50 [18]: < 2.70
pIC50 [20]: 2.88
pIC50 [21]: < 2.70
pIC50 [22]: < 2.70
pIC50 [23]: < 2.70
pIC50 [24]: < 2.70
pIC50 [25]: < 2.70
pIC50 [26]: < 2.70
pIC50 [27]: < 2.70
pIC50 [28]: < 2.70
pIC50 [29]: < 2.70
pIC50 [30]: 3.04
pIC50 [31]: < 2.70
pIC50 [32]: < 2.70
pIC50 [33]: < 2.70
pIC50 [34]: < 2.70
pIC50 [35]: 2.92
pIC50 [37]: 2.76
pIC50 [38]: < 2.70
pIC50 [39]: 3.53
pIC50 [40]: 2.82
pIC50 [42]: < 2.70

CC[C@@]1(O)C(=O)OCc2c1cc1n(c2=O)Cc2cc3ccccc3nc2-1 [CAMPTOTHECIN]
pIC50 [2]: 8.14
pIC50 [3]: 8.52
pIC50 [4]: 8.31
pIC50 [5]: 7.30
pIC50 [6]: 8.66
pIC50 [7]: 8.32
pIC50 [8]: 8.51
pIC50 [9]: 7.60
pIC50 [10]: 8.05
pIC50 [11]: < 7.00
pIC50 [12]: 8.14
pIC50 [13]: 8.50
pIC50 [14]: < 7.00
pIC50 [15]: 8.44
pIC50 [16]: 7.59
pIC50 [17]: 8.27
pIC50 [19]: 7.87
pIC50 [20]: 7.61
pIC50 [21]: < 7.00
pIC50 [22]: 8.41
pIC50 [23]: 8.73
pIC50 [24]: 7.79
pIC50 [25]: 8.16
pIC50 [26]: 8.16
pIC50 [27]: 8.33
pIC50 [28]: 7.53
pIC50 [29]: 7.11
pIC50 [30]: 8.09
pIC50 [31]: 7.14
pIC50 [32]: 9.05
pIC50 [33]: 7.57
pIC50 [34]: 7.36
pIC50 [35]: 8.12
pIC50 [36]: 7.64
pIC50 [37]: 7.16
pIC50 [38]: 7.45
pIC50 [39]: 8.00
pIC50 [40]: 7.31
pIC50 [42]: 9.21

Cn1c(=O)n(-c2ccc(C(C)(C)C#N)cc2)c2c3cc(-c4cnc5ccccc5c4)ccc3ncc21 [DACTOLISIB]
pIC50 [1]: < 5.70
pIC50 [2]: 6.76
pIC50 [3]: 7.91
pIC50 [4]: 8.00
pIC50 [5]: 6.56
pIC50 [6]: 7.47
pIC50 [7]: 7.71
pIC50 [8]: > 8.11
pIC50 [9]: 7.78
pIC50 [10]: 7.13
pIC50 [11]: < 5.70
pIC50 [12]: 7.34
pIC50 [13]: 7.79
pIC50 [14]: 6.47
pIC50 [15]: 7.48
pIC50 [16]: 6.95
pIC50 [17]: 7.44
pIC50 [18]: < 5.70
pIC50 [19]: 7.27
pIC50 [20]: 7.65
pIC50 [21]: 6.22
pIC50 [22]: 6.93
pIC50 [23]: 7.42
pIC50 [24]: 7.31
pIC50 [25]: 8.43
pIC50 [26]: < 5.70
pIC50 [27]: 6.73
pIC50 [28]: 6.31
pIC50 [29]: 7.23
pIC50 [30]: 7.08
pIC50 [31]: 6.96
pIC50 [32]: 6.90
pIC50 [33]: 6.87
pIC50 [34]: 6.28
pIC50 [35]: 7.45
pIC50 [36]: 6.91
pIC50 [37]: 7.30
pIC50 [39]: 7.22
pIC50 [40]: 7.67
pIC50 [42]: 7.90

CC(=O)c1c(C)c2cnc(Nc3ccc(N4CCNCC4)cn3)nc2n(C2CCCC2)c1=O [PALBOCICLIB]
pIC50 [1]: < 5.40
pIC50 [2]: < 5.40
pIC50 [3]: 6.01
pIC50 [4]: 6.00
pIC50 [5]: < 5.40
pIC50 [6]: < 5.40
pIC50 [7]: 5.56
pIC50 [9]: 5.61
pIC50 [10]: < 5.40
pIC50 [11]: < 5.40
pIC50 [12]: 5.59
pIC50 [13]: 5.55
pIC50 [14]: < 5.40
pIC50 [16]: < 5.40
pIC50 [17]: < 5.40
pIC50 [18]: < 5.40
pIC50 [19]: < 5.40
pIC50 [20]: < 5.40
pIC50 [21]: < 5.40
pIC50 [22]: < 5.40
pIC50 [23]: 6.09
pIC50 [24]: < 5.40
pIC50 [25]: < 5.40
pIC50 [26]: < 5.40
pIC50 [28]: < 5.40
pIC50 [29]: < 5.40
pIC50 [30]: < 5.40
pIC50 [31]: < 5.40
pIC50 [32]: < 5.40
pIC50 [33]: < 5.40
pIC50 [34]: < 5.40
pIC50 [35]: < 5.40
pIC50 [36]: < 5.40
pIC50 [37]: < 5.40
pIC50 [39]: < 5.40
pIC50 [42]: 5.76
